Some test systems named below: A549 NSCLC; HT29 colon; MALME-3M melanoma; OVCAR-5 ovarian; SF-539 CNS; SK-MEL-2 melanoma; SK-MEL-28 melanoma; SK-OV-3 ovarian; SR leukemia; T-47D breast.
What all share (test): inhibition of tumour cell growth, NCI panel, 48 h

The structures appear in SMILES notation.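 Assay format: 96-well plates, 48-hour exposure. TGI is the concentration that stops growth completely.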

`S=C1SCN(Cc2ccco2)CN1c1ccc(Br)cc1`: the TGI in the assay on A549 NSCLC was determined as 54.3 µM; in the assay with HT29 colon, 39.5 µM; with MALME-3M melanoma it was 35.3 µM; in the assay on OVCAR-5 ovarian it was 34.5 µM; with SF-539 CNS, 36.2 µM; with SK-MEL-2 melanoma it was 32 µM. For the same compound, the TGI in the assay with SK-MEL-28 melanoma is 43.1 µM; with SK-OV-3 ovarian it was 73.2 µM; in the assay on SR leukemia, 31.4 µM; with T-47D breast it was above 100 µM.
On to `CC(=O)Nc1ccc(OC2=CCN(C)CC2)cc1`, for which the TGI in the assay on A549 NSCLC, in the assay with HT29 colon, in the assay on MALME-3M melanoma, in the assay with OVCAR-5 ovarian, in the assay with SK-MEL-2 melanoma and in the assay with SK-MEL-28 melanoma was above 100 µM in each case. Moreover, the TGI with SK-OV-3 ovarian, with SR leukemia and in the assay with T-47D breast was above 100 µM in each case.
As for `CC(=O)c1c(C(F)(F)F)n([O-])c2cc(Cl)c(Cl)cc2[n+]1=O`, the TGI stood at 1.91 µM in the assay with A549 NSCLC; 2.54 µM with HT29 colon; 2.47 µM in the assay on MALME-3M melanoma; 3.29 µM in the assay with OVCAR-5 ovarian; 2.46 µM with SF-539 CNS; 2.72 µM with SK-MEL-2 melanoma. Besides, the TGI came out at 3.87 µM with SK-MEL-28 melanoma, 2.9 µM in the assay with SK-OV-3 ovarian, 0.0361 µM in the assay with SR leukemia and 2.96 µM in the assay with T-47D breast.
With `CCN(C(=S)N[C@H](C(=O)N[C@@H](C)C(=O)OC)C(C)C)c1ccccc1`, the TGI was above 100 µM with A549 NSCLC; above 100 µM in the assay on HT29 colon; 98.2 µM in the assay on MALME-3M melanoma; above 100 µM with OVCAR-5 ovarian; 84.3 µM in the assay with SF-539 CNS; above 100 µM with SK-MEL-2 melanoma. Further, the TGI was above 100 µM in the assay with SK-MEL-28 melanoma, above 100 µM in the assay with SK-OV-3 ovarian, 52.7 µM in the assay on SR leukemia and above 100 µM with T-47D breast.
Take `COc1ccc2nc3cc([N+](=O)[O-])ccc3c(Nc3ccc(S(=O)(=O)NC(C)=O)cc3)c2c1`: the TGI in the assay on A549 NSCLC, in the assay with HT29 colon, with MALME-3M melanoma, with OVCAR-5 ovarian, in the assay on SF-539 CNS and with SK-MEL-2 melanoma was above 100 µM each time. For the same compound, the TGI was above 100 µM in the assay on SK-MEL-28 melanoma, above 100 µM in the assay on SK-OV-3 ovarian, 75.8 µM with SR leukemia and above 100 µM with T-47D breast.
In the case of `CCOC(=O)c1cnc2oc3ccc(O)cc3c2c1-c1ccccc1`, the TGI in the assay on A549 NSCLC is above 100 µM; with HT29 colon, above 100 µM; with MALME-3M melanoma, above 100 µM; in the assay with OVCAR-5 ovarian, above 100 µM; in the assay with SF-539 CNS, 46.5 µM; with SK-MEL-2 melanoma, above 100 µM. Also, the TGI with SK-MEL-28 melanoma is above 100 µM; in the assay with SK-OV-3 ovarian, 46.1 µM; in the assay on SR leukemia, above 100 µM; in the assay on T-47D breast it was above 100 µM.
On to `C=C(C)C(O)C(O)c1c(OC)ccc2ccc(=O)oc12` (centres undefined), for which the TGI in the assay on A549 NSCLC, in the assay with HT29 colon, with MALME-3M melanoma, in the assay on OVCAR-5 ovarian, in the assay with SF-539 CNS and in the assay with SK-MEL-2 melanoma was above 100 µM each time. The TGI in the assay on SK-MEL-28 melanoma, with SK-OV-3 ovarian, in the assay on SR leukemia and in the assay on T-47D breast was above 100 µM each time.
For `O=C1/C(=N\S(=O)(=O)c2ccccc2)C([n+]2ccc(Cc3ccccc3)cc2)=C([O-])c2ccccc21`, the TGI with A549 NSCLC turned out to be 3.74 µM; in the assay with HT29 colon it was 1.49 µM; in the assay with MALME-3M melanoma, 1.73 µM; in the assay on OVCAR-5 ovarian it was 3.49 µM; with SF-539 CNS, 3.45 µM; with SK-MEL-2 melanoma, 3 µM. The TGI was 2.14 µM with SK-MEL-28 melanoma, 18.5 µM in the assay with SK-OV-3 ovarian, above 100 µM in the assay with SR leukemia and 13 µM with T-47D breast.
As to `O=C(OCCN=c1c2ccccc2ccc2ccccc12)c1ccc([N+](=O)[O-])cc1`, the TGI with A549 NSCLC, in the assay with HT29 colon, in the assay with MALME-3M melanoma, in the assay with OVCAR-5 ovarian, in the assay with SF-539 CNS and with SK-MEL-2 melanoma was above 100 µM each time. In addition, the TGI in the assay with SK-MEL-28 melanoma, in the assay on SK-OV-3 ovarian, with SR leukemia and with T-47D breast was above 100 µM each time.
Consider `CCCCCCCCCCCCCCCCCCNc1ccn(C2OC(COP(=O)(O)OCC3OC(n4cc(F)c(NCCCCCCCCCCCCCCCCCC)nc4=O)CC3O)C(O)C2O)c(=O)n1` (centres undefined), for which the TGI with A549 NSCLC, in the assay on HT29 colon, with MALME-3M melanoma, with OVCAR-5 ovarian, in the assay on SF-539 CNS and with SK-MEL-2 melanoma was above 100 µM in each case. The TGI with SK-MEL-28 melanoma, in the assay on SK-OV-3 ovarian, with SR leukemia and with T-47D breast was above 100 µM throughout.
For the compound `CCNC(=O)c1cc(/C=C/c2ccc([N+](=O)[O-])o2)nc2ccccc12`, the TGI in the assay with A549 NSCLC was above 100 µM; in the assay with HT29 colon, above 100 µM; in the assay with MALME-3M melanoma it was above 52.5 µM; with OVCAR-5 ovarian, above 100 µM; in the assay on SF-539 CNS it was above 100 µM; with SK-MEL-2 melanoma, 16.6 µM. Further, the TGI was 71.4 µM with SK-MEL-28 melanoma, above 100 µM in the assay on SK-OV-3 ovarian, above 100 µM with SR leukemia and above 100 µM with T-47D breast.
With `CSC1=N/C(=C\c2ccco2)C(=O)N1CN1CCOCC1`, the TGI with A549 NSCLC was above 100 µM; with HT29 colon, above 100 µM; with MALME-3M melanoma, above 80.7 µM; in the assay on OVCAR-5 ovarian it was above 100 µM; with SF-539 CNS, 35.3 µM; in the assay on SK-MEL-2 melanoma it was above 100 µM. Besides, the TGI with SK-MEL-28 melanoma is above 100 µM; with SK-OV-3 ovarian, above 100 µM; in the assay on SR leukemia, above 92.6 µM; in the assay on T-47D breast it was above 100 µM.
For the compound `COc1ccc(-c2cc(-c3cc4cc(Br)ccc4nc3Cl)c(C#N)c(N)n2)cc1`, the TGI with A549 NSCLC, with HT29 colon, with MALME-3M melanoma, in the assay on OVCAR-5 ovarian, in the assay with SF-539 CNS and in the assay with SK-MEL-2 melanoma was above 12.5 µM in each case. Besides, the TGI with SK-MEL-28 melanoma, in the assay on SK-OV-3 ovarian, in the assay on SR leukemia and with T-47D breast was above 12.5 µM in each case.
